For series [1] the following is noted: Crystal; visual observation.
A short description of series [2]: xn = mol fraction of the nth substance listed. As to conditions: 101 kPa, Liquid, Archimedean displacement method, x1 = 0.5.

From the NIST ThermoML archive (doi:10.1016/j.jct.2013.03.027) come the findings set out here.

Numbers after ± are expanded uncertainties.

In the case of `[Ag][I]` [silver iodide], the Normal melting temperature in series [1] came to 559 ± 1 °C.
Regarding `[Cl-].[Na+]` [sodium chloride], the Normal melting temperature in series [1] is 801 ± 1 °C.
For the compound `[Ag][I]` [silver iodide] + [Cl-].[Na+], the mass density (usually mass per unit of volume) in series [2] (1065 K) was determined as 3670 ± 37 kg/m3; in series [2] (1069 K), 3669 ± 37 kg/m3; in series [2] (1072 K), 3664 ± 37 kg/m3; in series [2] (1073 K) it was 3663 ± 37 kg/m3; in series [2] (1074 K), 3660 ± 37 kg/m3; in series [2] (1078 K), 3657 ± 37 kg/m3. Besides, the mass density in series [2] (1084 K) is recorded as 3652 ± 37 kg/m3.
